Assay results published in paper PMC10628858, “Investigation of new ferrocenyl-artesunate derivatives as antiparasitics” (Dalton Transactions (Cambridge, England : 2003), 2023).
Several values for one entry are separate records, joined by “and”; a condition that tells them apart may be missing. Equal values may be shown once. Read-outs that look alike come from different tables or passages of the source.

Key:
P. falciparum, NF54 = assay: P. falciparum growth inhibition assay (Malstat); format: cell-based, Plasmodium falciparum; settings: 72 h, maximum concentration tested 6000 nM, three independent experiments in triplicate, ± SEM, read-out: IC50 against P. falciparum, NF54
Protocol: The antimalarial activities of C1 to C4 and F1 to F3 were determined against the wild-type drug sensitive strain of P. falciparum, NF54. […]. Further, a close link between activity and oxidation potentials of the drugs was found. The lower the oxidation potential of the ferrocene moiety, the higher the activity of the final compound, giving directions for future compound development.
The drugs were prepared as 10 mM stocks in sterile DMSO. The drugs were then diluted using freshly prepared growth medium to the desired testing concentrations. Chloroquine and artesunate were used as standards. A full dose–response was preformed using a 96-well plate assay and the IC50 values determined. The maximum concentration tested was 6 μM which was then serially diluted 2-fold in growth media. The plates were incubated at 37 °C for 72 h at 3% O2 and 4% CO2. After 72 h the wells were resuspended and 15 μL of the suspension was transferred to a duplicate plate containing 100 μL of Malstat reagent and 25 μL of nitroblue tetrazolium solution. The plates were allowed 20 minutes in the dark to develop and the absorbance of each well was measured using UV-Vis at 620 nm.

[1] = system: T. gondii (ΔKu80::mNeonGreen); assay: T. gondii growth inhibition assay (mNeonGreen fluorescence); format: cell-based, Toxoplasma gondii
Protocol: […]. The rate of hydrolysis of C2 and C4 is closely correlated to the activity seen against T. gondii, such that the more readily the complex separates into its constituents, parts the better the overall activity.
To further investigate whether the accumulation of ROS was implicated in the MoA, the growth inhibition studies were repeated in the presence of the ROS scavenger N-acetyl cysteine (NAC) (Table 5).
Growth inhibition assays were performed in black, clear-bottomed 96 well plates preseeded with Human foreskin fibroblasts (HFFs) as described previously.[48] ΔKu80:mNeonGreen T. gondii were counted using a hemeocytometer and media from the host-cell seeded plate was aspirated and replaced with either 200 μL of D3 or 200 μL of media + 5000 parasites per well. Infected cells were incubated for 2 hours at 37 °C with 5% CO2 to allow for invasion. Following this, the media was removed and replaced with 100 μL fresh media. 100 μL of media containing 100 μM of the indicated drug in sterile DMSO was added and serially diluted. The parasites were then incubated for four days at 37 °C with 5% CO2 then flourescense read using the PHERAstar microplate reader. After removal of background, fluorescence values were normalised to untreated and plotted. Data analysis and non-linear regression was performed in Prism.

T. gondii [2] = assay: Determination of intracellular ROS levels with CellROX by flow cytometry; format: cell-based, Toxoplasma gondii; settings: 5 μM, 6 hours, 50 000 parasites, vs untreated
Protocol: Since both ferrocene and artesunate are able to generate ROS, we attempted to quantify the intracellular ROS levels in the parasite using CellROX, a compound which fluoresces in the presence of ROS. Treatment with artesunate was included as positive control as previous studies have linked artesunate treatment to ROS accumulation.[44] The parasites were treated with 5 μM of complexes C1, C3 and C4, and incubated for 6 hours. […] Since T. gondii rely predominately on heme biosynthesis as opposed to incorporation of heme from host hemoglobin, the concentration of iron present in the parasite is lower.[45] But, by incorporating an iron center in the molecule the slower activation may be circumvented leading to quicker cell death and a decreased CellROX reading.
Fig. 5 CellROX fluorescence quantified by flow cytometry from 50 000 parasites. T. gondii were untreated (grey) or treated for 6 hours with 5 μM compounds (blue) or artesunate (red) as a positive control.
Intracellular parasites were treated with 5 μM of the drug and incubated at 37 °C with 5% CO2 for either 18 hours or 6 hours. The parasites were released from host cells by scraping and syringing followed by passing through 3 μm filters to remove host-cell debris. The parasites were spun down at 6000 RPM for 10 minutes and resuspended in 500 μL PBS. 100 μL of the parasite suspension was placed in a FACS tube and a stock solution of CellROX dye in PBS (1 : 125 dilution) was added to this. This was then incubated in the dark at 37 °C for 1 hour and then read using a BD Celesta. Parasites were gated on forward and side scatter and on mNeonGreen fluorescence and histograms of Cy5 signal presented. Data analysis was performed using Flowjo.

[3] = system: clinically resistance (CQ-R) isolates of P. falciparum; design: method as in PMID 21894260; settings: cited from earlier work
[4] = Kinetic aqueous solubility, turbidimetric assay; format: physicochemical; settings: for solubility at 4 h: aqueous buffer, kinetic from dmso stock, absorbance 620 nm
Protocol: The kinetic solubility of the complexes was determined by means of a turbidimetric assay. The complexes were first dissolved in dimethyl sulfoxide (DMSO) which was then serially diluted in either phosphate buffered saline (PBS) or 4-(2-hydroxyethyl)-1-piperazineethanesulfonic acid (HEPES). The extent of precipitation was then measured using the absorbance at 620 nm.
PBS was prepared by dissolving one PBS tablet in 200 mL of distilled water at 25 °C yielding a buffered solution containing 10 mM phosphate buffer, 3.0 mM KCl and 140 mM NaCl. The pH was then confirmed to be at 7.4 with a pH meter. A 0.025 M HEPES buffer was prepared by dissolving HEPES free acid 5.00 mmol in distilled water (±180 mL) and titrating the solution with 0.100 M NaOH until a pH 7 was reached, the volume was then made up to 200 mL using distilled water. A 10.0 mM stock of each drug was prepared in DMSO. […] 4 μL of the drugs was then pipetted into a 96-well plate loaded with 196 μL of either the desired buffer solution or DMSO. The test plates were then incubated at 37 °C for 4 hours following which the UV-Vis absorbance was measured at 620 nm and the absorbances corrected by subtracting the blank.

[5] = Cyclic voltammetry (oxidation/reduction potentials); format: physicochemical; settings: Ag/AgCl electrode, scan rate 100 mV s^−1, 0.100 M [NBu4][PF6] in MeCN
T. gondii [6] = system: T. gondii; design: method as in PMID 32968076; settings: read-out: IC50 against T. gondii; cited from earlier work
[7] = Aqueous stability (hydrolysis) by UV-Vis kinetic scan in 10% MeOH (aq); format: physicochemical; settings: change in absorbance at 254 nm over one hour, ExpDec1 fit
Protocol: Since biological systems are comprised of water, the behavior and stability of a drug in aqueous media is important. To determine the stability, each complex was dissolved in MeOH and then diluted to 10% MeOH (aq). The solutions were then monitored by UV-Vis spectroscopy using a kinetic scan in the range 190–1100 nm over 1 hour. […] Hydrolysis was also supported by RP-HPLC in which new peaks emerged corresponding to the starting ferrocene precursors, F2 and F4. […] […] The major difference being between C1/C2 and C3/C4 is the nature of the linkage either being an ester or an amide bond. It is expected that the hydrolysis of C2 would occur quicker due to the more labile nature of the ester bond.
UV-Vis studies were performed by dissolving each complex in methanol to a concentration of 1 mM. This was then diluted using distilled water in a 10% methanol/water mixture giving a final concentration of 100 μM. The complexes were then monitored using a kinetic scan between the range 190–1100 nm scanning each minute over the course of one hour. […]

HEK293 cells = assay: MTT cell viability assay, HEK293; format: cell-based, human; settings: 48 h
Protocol: (§1) To assess the cytotoxicity of the four compounds a MTT cell viability assay using human embryonic kidney (HEK293) and human prostatic (PNT1A) cell lines were performed. […] The long chain compounds C1 and C3 were also shown to be non-cytotoxic towards the HEK293 cell line.
(§2) The immortalised human prostatic epithelial cell line, PNT1A (Sigma Aldrich, 95012614) was cultured in RPMI-1640 containing 10% foetal calf serum (Life Technologies, South Africa). The human embryonic kidney cell line HEK293 (ATCC) was cultured in DMEM (Life Technologies, South Africa). Both cell lines were cultured at 37 °C under 5% CO2 with 1% penicillin and streptomycin. Cancer cell cytotoxicity was evaluated using the MTT viability assay according to our previous method.[49] Briefly, cells were seeded at a density of 3 × 10^3 cells per well in 96-well plates and allowed to settle overnight. A 100 mM stock of C1/C2 and a 50 mM stock solution of C3/C4 in DMSO was prepared from which dilutions were made. The compound was then added to the cells in triplicate to obtain the indicated concentrations and 0.1% DMSO. Controls included cells treated with […] DMSO alone. After 48 h, 10 μL of 5 mg mL^−1 MTT (3-(4,5-dimethylthiazol-2-yl)-2,5-diphenyltetrazolium bromide) (Sigma-Aldrich) was added, and incubated with the cells for 4 h, followed by addition of 100 μL 10% SLS, 0.01 M HCL. The plates were read at 595 nm on a Multiscan FC plate reader (Thermo Scientific) and the data was fitted to a variable slope dose–response curve using Graphpad prism v6 to obtain the cytotoxicity IC50. The assay was repeated independently three times where inhibition was observed.

PNT1A cells = assay: MTT cell viability assay, PNT1A; format: cell-based, human; settings: 48 h
Protocol: as §1, §2

O=C(NCCO)[c-]1cccc1.[Fe+2].c1cc[cH-]c1 [Compound F1, N-(Hydroxyethyl)ferrocenamide] showed an IC50 (P. falciparum, NF54) of over 6 µM.

With C[C@H]1[C@H](OC(=O)CCC(=O)O)O[C@@H]2O[C@@]3(C)CC[C@H]4[C@H](C)CC[C@@H]1[C@@]24OO3 [Artesunate, artesunate] the IC50 ([1]; Toxoplasma gondii, 96 h, read-out: IC50 against T. gondii) was 0.2 ± 0.006 µM, the IC50 ([1]; Toxoplasma gondii, read-out: IC50 + NAC against T. gondii) was 0.31 ± 0.028 µM and the “Change in CellROX signal (intracellular ROS)” value (T. gondii [2]) was “increase”. The IC50 (P. falciparum, NF54; Plasmodium falciparum, NF54) was 0.003 ± 0.001 µM.

In the case of CN(C)Cc1ccc[c-]1CNc1ccnc2cc(Cl)ccc12.[Fe+2].c1cc[cH-]c1 (centres unmarked) [Ferroquine, ferroquine], the “Activity against CQ-R isolates of P. falciparum” value [3] is given as “less than 30 nM”.

For COC(=O)[C@H]1[C@H]2C[C@@H]3c4[nH]c5cc(OC)ccc5c4CCN3C[C@H]2C[C@@H](OC(=O)c2cc(OC)c(OC)c(OC)c2)[C@@H]1OC [Reserpine, reference compound], the solubility at 4 h ([4]; HEPES buffer with 2% DMSO, HEPES pH 7, 37 °C, read-out: Aqueous solubility range, HEPES) was 40 µM to 80 µM and 24 µg/mL to 50 µg/mL and the solubility at 4 h ([4]; phosphate buffered saline (PBS) with 2% DMSO, PBS pH 7.4, 37 °C, read-out: Aqueous solubility range, PBS) was 20 µM to 40 µM and 12 µg/mL to 24 µg/mL.

With [Fe+2].c1cc[cH-]c1.c1cc[cH-]c1 [Ferrocene, reference compound] the “E 1/2” value [5] was 0.446 V, the “E Ox” value [5] was 0.499 V and the “E Red” value [5] was 0.393 V. It also gave a ΔE [5] of 0.106 V.

With NCCNC(=O)[c-]1cccc1.[Fe+2].c1cc[cH-]c1 [Compound F3, N-(2-aminoethyl)ferrocenamide] the IC50 (P. falciparum, NF54) was over 6 µM.

In the case of C[C@H]1[C@@H](O)O[C@@H]2O[C@@]3(C)CC[C@H]4[C@H](C)CC[C@@H]1[C@@]24OO3 [DHA, dihydroartemisinin], the IC50 (T. gondii [6]) is given as about 0.066 µM.

With OC[c-]1cccc1.[Fe+2].c1cc[cH-]c1 [Compound F2, ferrocene methanol] the IC50 (P. falciparum, NF54) was 3.4 ± 0.096 µM.

In the case of CC1CCC2C(C)C(OC(=O)CCC(=O)OC[c-]3cccc3)OC3OC4(C)CCC1C32OO4.[Fe+2].c1cc[cH-]c1 (centres unmarked) [Compound C2], the “E 1/2” value [5] is reported as 0.503 V, the “E Ox” value [5] is reported as 0.561 V and the “E Red” value [5] is reported as 0.445 V. For the same molecule, the ΔE [5] was 0.116 V, the Half-life [7] was 3.0 ± 0.16 min and the “Rate constant (hydrolysis)” value [7] was 0.23 ± 0.013 min⁻¹. For the same molecule, the “Solubility range” value ([4]; turbidimetric assay, buffer not named) was 23 to 47 µg/mL, the IC50 ([1]; four days, in HFF host cells, three independent experiments in triplicate, ± SEM, read-out: IC50 against T. gondii) was 0.28 ± 0.022 µM and the IC50 (P. falciparum, NF54) was 0.019 ± 0.004 µM. It also gave an IC50 (HEK293 cells) of 53 ± 5.7 µM and an IC50 (PNT1A cells) of over 100 µM.
